Assay results reported in patent US10705094B2, “TNF receptor signaling modulator assay” (UCB Biopharma SRL, priority 2015, dated 2020).

Experiments:
[1] = target: T1, TNFα binding to the TNF receptor (TNFR-ECD) (Homo sapiens, UniProt P01375); experiment: Meso Scale Discovery (MSD) assay of TNFα binding to plate-coated TNFR-ECD; conditions: MSD assay, TNF 2 ng/ml, 5% DMSO; read-out: EC50 (enhanced binding of TNFα to immobilised ECD-TNFR)
T1 construct: purchased R&D Systems
Protocol: 384 well uncoated plates (standard binding) Meso Scale Discovery plates (MSD) were coated overnight with the extracellular domain of TNFR (TNFR-ECD) (10 μl, 1 ug/mL in PBS). To ensure even distribution plates were centrifuged at 1000 rpm for 2 minutes. The plates were then sealed and stored at +4° C. overnight.
The wells of the plates were then washed three times in 50 μl phosphate buffered saline pH 6.5 (PB) with 0.05% Tween 20 (wash buffer), and then blocked with 50 μl 2% BSA. The plates were then incubated at room temperature on a shaker (600 rpm) for 2 hours. After this incubation plates were washed (3×50 μl wash buffer per well).
During the blocking incubation, compounds of formulae (1) and (2) were pre-incubated with TNF (R&D Systems) prior to addition to the pre-blocked and washed MSD plates. For a single point assay as shown in FIG. 3A the compounds were assayed at a final concentration of 100 μM (5% final v/v DMSO).
Pre-diluted compounds of formulae (1) and (2) were added at a ratio of 1:1 to 4 ng/mL TNF (final concentration 2 ng/ml), and then incubated at room temperature on a shaker 600 rpm for 1 hour.
10 μl of pre-incubated mixtures of compound of formulae (1) or (2) with TNFα were added to the prepared MSD plate and incubated at room temperature on a shaker for 1 hour.
The plates were then washed with wash buffer (3×50 μl per well). Sulfo-tagged anti-TNF polyclonal antibody was then added to each well and the plates incubated for a further 1.5 hours at room temperature on a shaker.
The plates were then washed (3×50 μl wash buffer per well), followed by the addition of 50 μl MSD Read buffer T plus surfactant (diluted 1 in 2 in H2O) and read on a SECTOR Imager 6000.
For single point assays percentage inhibition was calculated using a control sample without compound.
For EC50s determination results were calculated by standard means using a 4 parameter logistic model (sigmoidal dose response model).

TNFα = TNFα (Homo sapiens, UniProt P01375); experiment: Surface plasmon resonance kinetics of compound binding to immobilised TNFα (Biacore T100/T200); conditions: for dissociation half-life (t1/2): from koff; for kon / koff: immobilised TNFα, HBS-P with 5% DMSO; for koff: read-out: dissociation rate constant (koff)
Protocol: Surface plasmon resonance was used to measure the association rate, the dissociation rate and the affinity of the compounds of formulae (1) and (2) for TNFα (FIGS. 13A and B). For the purpose of this study a Biacore T100/T200 was used.
TNFα was immobilised at pH5 to a level of 5-8 KRU onto a CMS sensor in HBS-P buffer (10 mM HEPES pH 7.4, 0.15 M NaCl, 0.005% Surfactant P20, BIAcore, GE Healthcare). The TNFα was then equilibrated in HBS-P with 5% DMSO for at least 5 hours. The samples were diluted from 10 mM stocks into DMSO matched buffer and left to solubilise for at least 5 hours. The flow rate was 30 μL/min.
This assay was performed by adding 4 or 5 concentrations of compound starting from a highest concentration of 25 μM for compound of formula (1) and 1 μM for compound of formula (2) and then serially diluting this sample. Background subtraction binding curves were analysed using the BIAevaluation software following standard procedures. Binding, affinity and kinetic parameters were determined using Biacore software. The kinetic data were fitted using the levenberg marquardt algorithm.

m-TNFα = target: T2, m-TNFα (Mus musculus, UniProt P06804); experiment: Monomer exchange in TNFα trimers by mass spectrometry, compound pre-incubated with mouse TNFα; assay type: binding; conditions: for off-rate from m-TNFα: 1:1 complex with m-TNFα mixed with h-TNFα; for cross species monomer subunit exchange: compound preincubated with m-TNFα, then h-TNFα added
T2 sequence (P06804 80-235 limits assumed): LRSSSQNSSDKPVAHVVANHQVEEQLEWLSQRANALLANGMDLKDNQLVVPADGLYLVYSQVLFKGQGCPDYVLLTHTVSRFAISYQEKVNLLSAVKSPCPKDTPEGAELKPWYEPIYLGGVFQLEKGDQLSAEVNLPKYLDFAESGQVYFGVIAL
Protocol: Human and mouse homotrimers of TNFα (H3 and M3 respectively) were incubated together and aliquots of the solution monitored by mass spectrometry appearance of the cross species heterotrimers. The mass spectrometric analysis confirmed that monomer exchange between native TNFα trimers was able to occur in solution. The exchange rate was slow and was monitored over a course of 4 hours before full equilibration was achieved (data not shown). The mechanism is unknown, although is it unlikely to involve formation of the dimeric forms as none of these were observed. Monomer exchange is likely to be occurring between pure human and mouse trimers, the mixing of mouse and human trimers simply makes this exchange visible by mass spectrometry.
The experiment was then repeated in reverse. Excess compound of formula 1 was incubated with Mouse TNFα, the excess compound of formula (1) was then removed. Mass Spectral analysis confirmed that a 1:1 complex had been formed between the compound of formula (1) and m-TNFα. Human TNFα was now added to this sample which was then subjected to mass spectral analysis over a number of hours. […] In addition there was evidence of formation of the ligated human homotrimer (H3L), the unligated mouse homotrimer (M3) and for unbound compound of formula (1) (L). […] Once this complex (M3L) has dissociated, monomer subunit exchange between the H3 and M3 species proceeds and the liberated ligand is then able to form complexes with all 4 trimer species present in solution.

[2] = target: TNFα binding to TNF receptor (ECD-TNFR) (Homo sapiens, UniProt P01375); experiment: Biacore in-solution competition/enhancement assay, TNFα/compound mix over immobilised ECD-TNFR; conditions: Biacore A100/4000, 0.5-1 nM TNFα, highest concentration 20 μM; read-out: EC50 (compound induced enhanced binding of TNFα to TNF receptor)
Protocol: For this purpose a Biacore A100/4000 was used. […] For example a typical assay may use 20 μ[…] solution of compound. […] Control compounds were tested every 10-15 cycles. […] Background subtraction binding curves were analysed using the BIAevaluation software following standard procedures. The EC50 data was determined using a four parameter logistic fit. […] The RU (resonance unit) value for TNFα in the absence of compound was subtracted from the curves so these now show only the increase in binding induced by the compounds. The progress curves plateau at higher RU values as the concentration of compound increases.

SMILES | EC50 [1] [nM] | Kd (TNFα; calculated from koff/kon, read-out: dissociation constant (KD)) [nM] | dissociation half-life (t1/2) (TNFα) | kon (TNFα) [M⁻¹ s⁻¹] | koff (TNFα) [s⁻¹] | off-rate from m-TNFα (m-TNFα) | cross species monomer subunit exchange (m-TNFα) | EC50 [2] [nM]
Cc1ccc(C)c(Cn2c(C(O)c3ccncc3)nc3ccccc32)c1 (stereo not drawn) [Compound (1), [1-(2,5-Dimethylbenzyl)-1H-benzimidazol-2-yl](pyridin-4-yl)methanol] | 4600 | 35 | over 2 hours | 2670 | 9.46e-05 | measurable off-rate | did not prevent monomer subunit exchange | 298
Cc1ccc(C)c(Cn2c(C(O)c3ccncc3)nc3ccc(-c4cnn(C)c4)cc32)c1 (stereo not drawn) [Compound (2), [1-(2,5-Dimethylbenzyl)-6-(1-methyl-1H-pyrazol-4-yl)-1H-benzimidazol-2-yl](pyridin-4-yl)methanol] | 3700 | – | > 8 h | 1120 | 2.24e-05 | no measurable off-rate | no monomer subunit exchange was observed | 280
